Experimental data published in patent publication US9670261B2 (Sanofi, priority 2012, dated 2017).
Converted amounts (≈) assume the structure as drawn. *1 amine or outer side, *2 acyl side, *3 side chain or, on linkers, in order; H or OH if unused. Where a SMILES comes first, the peptide text is derived from it. Side-chain parts run from the residue outwards. [ ]: non-standard residue; d: D form. The star is where a group is joined. γGlu = O=C(O)[C@H](CCC(=O)[*:2])N[*:1]; Stearoyl = CCCCCCCCCCCCCCCCCC(=O)*; Palmitoyl = CCCCCCCCCCCCCCCC(=O)*; Aib = CC(C)(N)C(=O)O; βAla = NCCC(=O)O

Key:
human GLP-1 receptor = molecular target: T1, human GLP-1 receptor (Homo sapiens, UniProt P43220); assay: cAMP response (HTRF) of HEK-293 cells stably expressing human GLP-1 receptor; format: cell-based; details: Table 7; cAMP formation; read-out: EC50 hGLP-1 R
T1 construct: expressed in transfected cells
T1 sequence (P43220 24-463): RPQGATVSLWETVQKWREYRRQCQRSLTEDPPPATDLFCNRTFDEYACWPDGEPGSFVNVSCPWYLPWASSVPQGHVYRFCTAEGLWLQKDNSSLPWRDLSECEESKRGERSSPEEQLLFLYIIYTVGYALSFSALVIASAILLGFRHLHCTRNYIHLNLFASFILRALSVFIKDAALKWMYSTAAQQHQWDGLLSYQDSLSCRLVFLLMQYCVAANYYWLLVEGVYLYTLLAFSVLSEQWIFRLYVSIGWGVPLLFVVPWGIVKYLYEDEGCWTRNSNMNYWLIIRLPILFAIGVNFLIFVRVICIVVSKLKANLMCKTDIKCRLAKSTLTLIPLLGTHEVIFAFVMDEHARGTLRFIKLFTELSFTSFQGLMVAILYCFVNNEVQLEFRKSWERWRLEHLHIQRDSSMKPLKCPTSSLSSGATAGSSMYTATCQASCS
Experimental: cAMP content of cells was determined using a kit from Cisbio Corp. (cat. no. 62AM4PEC) based on HTRF (Homogenous Time Resolved Fluorescence). For preparation, cells were split into T175 culture flasks and grown overnight to near confluency in medium (DMEM/10% FBS). Medium was then removed and cells washed with PBS lacking calcium and magnesium, followed by proteinase treatment with accutase (Sigma-Aldrich cat. no. A6964). Detached cells were washed and resuspended in assay buffer (1×HBSS; 20 mM HEPES, 0.1% BSA, 2 mM IBMX) and cellular density determined. They were then diluted to 400000 cells/ml and 25 μl-aliquots dispensed into the wells of 96-well plates. For measurement, 25 μl of test compound in assay buffer was added to the wells, followed by incubation for 30 minutes at room temperature.

[1] = Pharmacokinetic testing in mice, s.c.; details: mouse, plasma, sc, 1 mg/kg
Experimental: Mice were dosed 1 mg/kg subcutaneously (s.c.). The mice were sacrified and blood samples were collected after 0.25, 0.5, 1, 2, 4, 8, 16 and 24 hours post application. Plasma samples were analyzed after protein precipitation via liquid chromatography mass spectrometry (LC/MS). PK parameters and half-life were calculated using WinonLin Version 5.2.1 (non-compartment model).

[2] = Solubility testing in buffer (HPLC-UV); details: buffer
[3] = Chemical stability in solution, 7 days at 25° C. (% remaining peptide); details: % remaining peptide after 7 days at 25° C.
Experimental: After that time course, the sample was centrifuged for 20 min at 4000 rpm and the supernatant was analysed with HPLC-UV. For determination of the amount of the remaining peptide, the peak areas of the target compound at t0 and t7 were compared, resulting in “% remaining peptide”, following the equation % remaining peptide=[(peak area peptide t7)×100]/peak area peptide t0.
The chemical stability is expressed as “% remaining peptide”.

CCCCCCCCCCCCCCCC(=O)N[C@@H](CCC(=O)NCCCC[C@H](NC(=O)[C@H](CCC(N)=O)NC(=O)[C@@H](NC(=O)[C@H](CO)NC(=O)[C@H](CC(C)C)NC(=O)[C@H](CC(=O)O)NC(=O)[C@H](CO)NC(=O)[C@@H](NC(=O)[C@H](Cc1ccccc1)NC(=O)[C@@H](NC(=O)CNC(=O)[C@H](CCC(N)=O)NC(=O)C(C)(C)NC(=O)[C@@H](N)Cc1ccc(O)cc1)[C@@H](C)O)[C@@H](C)O)[C@@H](C)CC)C(=O)N[C@@H](CCC(=O)O)C(=O)N[C@@H](CCCCN)C(=O)N[C@@H](CCCNC(=N)N)C(=O)N[C@@H](C)C(=O)N[C@@H](C)C(=O)NC(C)(C)C(=O)N[C@@H](CCC(=O)O)C(=O)N[C@@H](Cc1ccccc1)C(=O)N[C@H](C(=O)N[C@@H](CCC(=O)O)C(=O)N[C@@H](Cc1c[nH]c2ccccc12)C(=O)N[C@@H](CC(C)C)C(=O)N[C@@H](CCCCN)C(=O)N[C@@H](CC(N)=O)C(=O)N[C@H](C(=O)NCC(=O)N1CCC[C@H]1C(=O)N[C@@H](CO)C(=O)N[C@@H](CO)C(=O)NCC(=O)N[C@@H](C)C(=O)N1CCC[C@H]1C(=O)N1CCC[C@H]1C(=O)N1CCC[C@H]1C(=O)N[C@@H](CO)C(N)=O)[C@@H](C)O)[C@@H](C)CC)C(=O)O [SEQ ID NO: 8, Y-Aib-Q-G-T-F-T-S-D-L-S-I-Q-K(γE-x53)-E-K-R-A-A-Aib-E-F-I-E-W-L-K-N-T-G-P-S-S-G-A-P-P-P-S-NH2] (H-Y[Aib]QGTFTSDLSIQK([γGlu-Palmitoyl])EKRAA[Aib]EFIEWLKNTGPSSGAPPPS-NH2)
EC50 (human GLP-1 receptor): 5.3 pM
Cmax [1]: 3740 ng/mL
half-life [1]: 3.4 h
solubility at 2 h ([2]; pH 4.5): > 1000 µg/mL
solubility at 2 h ([2]; pH 7.4): 972 µg/mL (≈ 212 µM)
Stability (pH 4.5) [3]: 98.0%
Stability (pH 7.4) [3]: 98.0%

CCCCCCCCCCCCCCCCCC(=O)N[C@@H](CCC(=O)NCCCC[C@H](NC(=O)[C@H](CCC(N)=O)NC(=O)[C@@H](NC(=O)[C@H](CO)NC(=O)[C@H](CC(C)C)NC(=O)[C@H](CC(=O)O)NC(=O)[C@H](CO)NC(=O)[C@@H](NC(=O)[C@H](Cc1ccccc1)NC(=O)[C@@H](NC(=O)CNC(=O)[C@H](CCC(=O)O)NC(=O)C(C)(C)NC(=O)[C@@H](N)Cc1ccc(O)cc1)[C@@H](C)O)[C@@H](C)O)[C@@H](C)CC)C(=O)N[C@@H](CCC(=O)O)C(=O)N[C@@H](CCCCN)C(=O)N[C@@H](CCCNC(=N)N)C(=O)N[C@@H](C)C(=O)N[C@@H](C)C(=O)NC(C)(C)C(=O)N[C@@H](CCC(=O)O)C(=O)N[C@@H](Cc1ccccc1)C(=O)N[C@H](C(=O)N[C@@H](CCC(=O)O)C(=O)N[C@@H](Cc1c[nH]c2ccccc12)C(=O)N[C@@H](CC(C)C)C(=O)N[C@@H](CCCCN)C(=O)N[C@@H](CC(N)=O)C(=O)N[C@H](C(=O)NCC(=O)N1CCC[C@H]1C(=O)N[C@@H](CO)C(=O)N[C@@H](CO)C(=O)NCC(=O)N[C@@H](C)C(=O)N1CCC[C@H]1C(=O)N1CCC[C@H]1C(=O)N1CCC[C@H]1C(=O)N[C@@H](CO)C(N)=O)[C@@H](C)O)[C@@H](C)CC)C(=O)O [SEQ ID NO: 15, Y-Aib-E-G-T-F-T-S-D-L-S-I-Q-K(γE-x70)-E-K-R-A-A-Aib-E-F-I-E-W-L-K-N-T-G-P-S-S-G-A-P-P-P-S-NH2] (H-Y[Aib]EGTFTSDLSIQK([γGlu-Stearoyl])EKRAA[Aib]EFIEWLKNTGPSSGAPPPS-NH2)
Cmax [1]: 5000 ng/mL
half-life [1]: 3.5 h
solubility at 2 h ([2]; pH 4.5): 997 µg/mL (≈ 216 µM)
solubility at 2 h ([2]; pH 7.4): > 1000 µg/mL
Stability (pH 4.5) [3]: 91.0%
Stability (pH 7.4) [3]: 90.0%

CCCCCCCCCCCCCCCCCC(=O)NCCC(=O)NCCC(=O)NCCCC[C@H](NC(=O)[C@H](CCC(N)=O)NC(=O)[C@@H](NC(=O)[C@H](CO)NC(=O)[C@H](CC(C)C)NC(=O)[C@H](CC(=O)O)NC(=O)[C@H](CO)NC(=O)[C@@H](NC(=O)[C@H](Cc1ccccc1)NC(=O)[C@@H](NC(=O)CNC(=O)[C@H](CCC(=O)O)NC(=O)C(C)(C)NC(=O)[C@@H](N)Cc1ccc(O)cc1)[C@@H](C)O)[C@@H](C)O)[C@@H](C)CC)C(=O)N[C@@H](CCC(=O)O)C(=O)N[C@@H](CCCCN)C(=O)N[C@@H](CCCNC(=N)N)C(=O)N[C@@H](C)C(=O)N[C@@H](C)C(=O)NC(C)(C)C(=O)N[C@@H](CCC(=O)O)C(=O)N[C@@H](Cc1ccccc1)C(=O)N[C@H](C(=O)N[C@@H](CCC(=O)O)C(=O)N[C@@H](Cc1c[nH]c2ccccc12)C(=O)N[C@@H](CC(C)C)C(=O)N[C@@H](CCCCN)C(=O)N[C@@H](CC(N)=O)C(=O)N[C@H](C(=O)NCC(=O)N1CCC[C@H]1C(=O)N[C@@H](CO)C(=O)N[C@@H](CO)C(=O)NCC(=O)N[C@@H](C)C(=O)N1CCC[C@H]1C(=O)N1CCC[C@H]1C(=O)N1CCC[C@H]1C(=O)N[C@@H](CO)C(N)=O)[C@@H](C)O)[C@@H](C)CC [SEQ ID NO: 18, Y-Aib-E-G-T-F-T-S-D-L-S-I-Q-K(βA-βA-x70)-E-K-R-A-A-Aib-E-F-I-E-W-L-K-N-T-G-P-S-S-G-A-P-P-P-S-NH2] (H-Y[Aib]EGTFTSDLSIQK([βAla-βAla-Stearoyl])EKRAA[Aib]EFIEWLKNTGPSSGAPPPS-NH2)
EC50 (human GLP-1 receptor): 7.6 pM
Cmax [1]: 5750 ng/mL
half-life [1]: 2.1 h

CCCCCCCCCCCCCCCC(=O)N[C@@H](CCC(=O)NCCCC[C@H](NC(=O)[C@H](CCC(N)=O)NC(=O)[C@@H](NC(=O)[C@H](CO)NC(=O)[C@H](CC(C)C)NC(=O)[C@H](CC(=O)O)NC(=O)[C@H](CO)NC(=O)[C@@H](NC(=O)[C@H](Cc1ccccc1)NC(=O)[C@@H](NC(=O)CNC(=O)[C@H](CCC(=O)O)NC(=O)C(C)(C)NC(=O)[C@@H](N)Cc1ccc(O)cc1)[C@@H](C)O)[C@@H](C)O)[C@@H](C)CC)C(=O)N[C@@H](CCC(=O)O)C(=O)N[C@@H](CCCCN)C(=O)N[C@@H](CCCNC(=N)N)C(=O)N[C@@H](C)C(=O)N[C@@H](C)C(=O)N[C@@H](CCC(N)=O)C(=O)N[C@@H](CCC(=O)O)C(=O)N[C@@H](Cc1ccccc1)C(=O)N[C@H](C(=O)N[C@@H](CCC(=O)O)C(=O)N[C@@H](Cc1c[nH]c2ccccc12)C(=O)N[C@@H](CC(C)C)C(=O)N[C@@H](CCCCN)C(=O)N[C@@H](CC(N)=O)C(=O)N[C@H](C(=O)NCC(=O)N1CCC[C@H]1C(=O)N[C@@H](CO)C(=O)N[C@@H](CO)C(=O)NCC(=O)N[C@@H](C)C(=O)N1CCC[C@H]1C(=O)N1CCC[C@H]1C(=O)N1CCC[C@H]1C(=O)N[C@@H](CO)C(N)=O)[C@@H](C)O)[C@@H](C)CC)C(=O)O [SEQ ID NO: 26, Y-Aib-E-G-T-F-T-S-D-L-S-I-Q-K(γE-x53)-EKRAAQEFIEWLKNTGPSSGAPPPS-NH2] (H-Y[Aib]EGTFTSDLSIQK([γGlu-Palmitoyl])EKRAAQEFIEWLKNTGPSSGAPPPS-NH2)
EC50 (human GLP-1 receptor): 4.9 pM
Cmax [1]: 3120 ng/mL
half-life [1]: 3.7 h

CCCCCCCCCCCCCCCC(=O)N[C@@H](CCC(=O)NCCCC[C@H](NC(=O)[C@H](CCC(N)=O)NC(=O)[C@@H](NC(=O)[C@H](CO)NC(=O)[C@H](CC(C)C)NC(=O)[C@H](CC(=O)O)NC(=O)[C@H](CO)NC(=O)[C@@H](NC(=O)[C@H](Cc1ccccc1)NC(=O)[C@@H](NC(=O)CNC(=O)[C@H](CCC(=O)O)NC(=O)C(C)(C)NC(=O)[C@@H](N)Cc1ccc(O)cc1)[C@@H](C)O)[C@@H](C)O)[C@@H](C)CC)C(=O)N[C@@H](CC(=O)O)C(=O)N[C@@H](CCCCN)C(=O)N[C@@H](CCCNC(=N)N)C(=O)N[C@@H](C)C(=O)N[C@@H](C)C(=O)N[C@@H](CCC(N)=O)C(=O)N[C@@H](CC(=O)O)C(=O)N[C@@H](Cc1ccccc1)C(=O)N[C@H](C(=O)N[C@@H](CCC(=O)O)C(=O)N[C@@H](Cc1c[nH]c2ccccc12)C(=O)N[C@@H](CC(C)C)C(=O)N[C@@H](CCCCN)C(=O)N[C@@H](C)C(=O)NCC(=O)NCC(=O)N1CCC[C@H]1C(=O)N[C@@H](CO)C(=O)N[C@@H](CO)C(=O)NCC(=O)N[C@@H](C)C(=O)N1CCC[C@H]1C(=O)N1CCC[C@H]1C(=O)N1CCC[C@H]1C(=O)N[C@@H](CO)C(N)=O)[C@@H](C)CC)C(=O)O [SEQ ID NO: 31, Y-Aib-E-G-T-F-T-S-D-L-S-I-Q-K(γE-x53)-DKRAAQDFIEWLKAGGPSSGAPPPS-NH2]
EC50 (human GLP-1 receptor): 6 pM
solubility at 2 h ([2]; pH 4.5): > 1000 µg/mL
solubility at 2 h ([2]; pH 7.4): > 1000 µg/mL
Stability (pH 4.5) [3]: 94.0%
Stability (pH 7.4) [3]: 96.0%

CCCCCCCCCCCCCCCC(=O)N[C@@H](CCC(=O)NCCCC[C@H](NC(=O)[C@H](CCC(N)=O)NC(=O)[C@@H](NC(=O)[C@H](CO)NC(=O)[C@H](CC(C)C)NC(=O)[C@H](CC(=O)O)NC(=O)[C@H](CO)NC(=O)[C@@H](NC(=O)[C@H](Cc1ccccc1)NC(=O)[C@@H](NC(=O)CNC(=O)[C@H](CCC(=O)O)NC(=O)C(C)(C)NC(=O)[C@@H](N)Cc1ccc(O)cc1)[C@@H](C)O)[C@@H](C)O)[C@@H](C)CC)C(=O)N[C@@H](CCC(=O)O)C(=O)N[C@@H](CO)C(=O)N[C@@H](CCCNC(=N)N)C(=O)N[C@@H](C)C(=O)N[C@@H](C)C(=O)NC(C)(C)C(=O)N[C@@H](CCC(=O)O)C(=O)N[C@@H](Cc1ccccc1)C(=O)N[C@H](C(=O)N[C@@H](CCC(=O)O)C(=O)N[C@@H](Cc1c[nH]c2ccccc12)C(=O)N[C@@H](CC(C)C)C(=O)N[C@@H](CCCCN)C(=O)N[C@@H](C)C(=O)NCC(=O)NCC(=O)N1CCC[C@H]1C(=O)N[C@@H](CO)C(=O)N[C@@H](CO)C(=O)NCC(=O)N[C@@H](C)C(=O)N1CCC[C@H]1C(=O)N1CCC[C@H]1C(=O)N1CCC[C@H]1C(=O)N[C@@H](CO)C(N)=O)[C@@H](C)CC)C(=O)O [SEQ ID NO: 35, Y-Aib-E-G-T-F-T-S-D-L-S-I-Q-K(γE-x53)-E-S-R-A-A-Aib-E-F-I-E-W-L-K-A-G-G-P-S-S-G-A-P-P-P-S-NH2] (H-Y[Aib]EGTFTSDLSIQK([γGlu-Palmitoyl])ESRAA[Aib]EFIEWLKAGGPSSGAPPPS-NH2)
EC50 (human GLP-1 receptor): 6.9 pM
solubility at 2 h ([2]; pH 4.5): 424 µg/mL (≈ 95.4 µM)
solubility at 2 h ([2]; pH 7.4): > 1000 µg/mL
Stability (pH 4.5) [3]: 100.0%
Stability (pH 7.4) [3]: 98.0%
